Data reported in publication PMC10743905, “Design, Synthesis, and In Vitro and In Vivo Bioactivity Studies of Hydrazide–Hydrazones of 2,4-Dihydroxybenzoic Acid” (International Journal of Molecular Sciences, 2023).
In brackets after ≈: the same amount, converted by molar mass.

How the values were obtained:
[1] = system: Proteus mirabilis ATCC 12453; assay: Broth microdilution MIC/MBC; format: cell-based; details: ATCC12453
Text: (§1) In vitro antimicrobial activity assays - Methodology
(§2) The examined compounds 1 - 24 were screened in vitro for antibacterial and antifungal activities using the broth microdilution method according to procedure reported earlier by our research group and European Committee on Antimicrobial Susceptibility Testing (EUCAST) and Clinical and Laboratory Standards Institute (CLSI) guidelines against a panel of reference and clinical or saprophytic strains of microorganisms, in-cluding Gram-positive bacteria, Staphylococcus aureus ATCC 43300 (Methicillin Resistant S. aureus – MRSA), Staphylococcus aureus ATCC 29213 (Methicillin Susceptible S. aureus – MSSA), Staphylococcus epidermidis ATCC 12228, Enterococcus faecalis ATCC 29212, Micro-coccus luteus ATCC 10240, Bacillus subtilis ATCC 6633 and Bacillus cereus ATCC 10876), Gram-negative bacteria (Bordetella bronchiseptica ATCC 4617, Escherichia coli ATCC 25922, Klebsiella pneumoniae ATCC 13883, Proteus mirabilis ATCC 12453, Salmonella typhimurium ATCC 14028 and Pseudomonas aeruginosa ATCC 9027) and fungi belonging to yeasts (Can-dida albicans ATCC 10231, Candida albicans ATCC 2091, Candida parapsilosis ATCC 22019, Candida glabrata ATCC 90030 and Candida krusei ATCC 14243). The microorganisms be-longing to ATCC came from American Type Culture Collection, routinely used for the evaluation of antimicrobials. […]
(§3) Samples containing examined compounds were dissolved in dimethyl sulfoxide (DMSO). […]
(§4) Subsequently, the MIC (Minimal Inhibitory Concentration) of the compounds was ex-amined by the microdilution broth method, using their two-fold dilutions in Mueller- […]
(§5) Hinton broth or (for bacteria) and RPMI 1640 broth with MOPS (for fungi) prepared in 96-well polystyrene plates. Final concentrations of the compounds ranged from 1000 to 0.488 µg/ml. Microbial suspensions were prepared in 0.85% NaCl with an optical density of 0.5 McFarland standard. Next each bacterial or fungal suspension was added per each well containing broth and various concentrations of the examined compounds. After incuba-

[2] = system: Staphylococcus aureus ATCC 43300; assay: Broth microdilution MIC/MBC; format: cell-based; details: Staphylococcus aureus ATCC 43300 (MRSA)
Text: as §1, §2, §3, §4, §5

[3] = system: Micrococcus luteus ATCC 10240; assay: Broth microdilution MIC/MBC; format: cell-based; details: for MBC: ATCC10240; for MIC: ATCC10240, read-out: MIC
Text: as §1, §2, §3, §4, §5

[4] = system: Pseudomonas aeruginosa ATCC 9027; assay: Broth microdilution MIC/MBC; format: cell-based; details: ATCC9027
Text: as §1, §2, §3, §4, §5

[5] = system: Staphylococcus epidermidis ATCC 12228; assay: Broth microdilution MIC/MBC; format: cell-based; details: for MBC: ATCC12228; for MIC: ATCC12228, read-out: MIC
Text: as §1, §2, §3, §4, §5

[6] = system: Salmonella typhimurium ATCC 14028; assay: Broth microdilution MIC/MBC; format: cell-based; details: Salmonella enterica
Text: as §1, §2, §3, §4, §5

[7] = system: Staphylococcus aureus ATCC 29213; assay: Broth microdilution MIC/MBC; format: cell-based; details: for MBC / MIC: ATCC29213
Text: as §1, §2, §3, §4, §5

[8] = system: Candida albicans ATCC 10231; assay: Broth microdilution MIC/MFC; format: cell-based; details: for MFC: ATCC10231, read-out: MFC; for MIC: ATCC10231, read-out: MIC
Text: as §1
as §2, with “antimicrobials. All the used microbial cultures were first subcultured on nu-trient agar or Sabouraud agar at 35°C for 18-24 h or 30°C for 24-48 h for bacteria and fungi,” for “antimicrobials.”
(§6) The surface of Mueller-Hinton agar (for bacteria) and RPMI 1640 with MOPS (for fungi) were inoculated with the suspensions of bacterial or fungal species. Microbial suspensions were prepared in sterile saline with an optical density of McFarland standard scale 0.5.
(§7) Samples containing examined compounds were dissolved in dimethyl sulfoxide (DMSO).
(§8) Furthermore, bacterial and fungal suspensions were put onto Petri dishes with solid me-dia containing 2 mg/mL of the tested compounds followed incubation at 37°C for 24h and 30°C for 48h for bacteria and fungi, respectively. The inhibition of microbial growth was judged by comparison with a control culture prepared without any sample tested. Ciprof-loxacin, vancomycin, nitrofurantoin, cefuroxime, ampicillin or nystatin (Sigma) were used as a reference antibacterial or antifungal compounds, respectively.
as §4, §5

[9] = system: Candida krusei ATCC 14243; assay: Broth microdilution MIC/MFC; format: cell-based; details: Pichia kudriavzevii, ATCC14243, read-out: MIC
Text: as §1
as §2, with “antimicrobials. All the used microbial cultures were first subcultured on nu-trient agar or Sabouraud agar at 35°C for 18-24 h or 30°C for 24-48 h for bacteria and fungi,” for “antimicrobials.”
as §6, §7, §8, §4, §5

[10] = system: Candida parapsilosis ATCC 22019; assay: Broth microdilution MIC/MFC; format: cell-based; details: for MIC: ATCC22019, read-out: MIC
Text: as §1
as §2, with “antimicrobials. All the used microbial cultures were first subcultured on nu-trient agar or Sabouraud agar at 35°C for 18-24 h or 30°C for 24-48 h for bacteria and fungi,” for “antimicrobials.”
as §6, §7, §8, §4, §5

[11] = system: Candida albicans ATCC 2091; assay: Broth microdilution MIC/MFC; format: cell-based; details: for MFC: ATCC2091, read-out: MFC; for MIC: ATCC2091, read-out: MIC
Text: as §1
as §2, with “antimicrobials. All the used microbial cultures were first subcultured on nu-trient agar or Sabouraud agar at 35°C for 18-24 h or 30°C for 24-48 h for bacteria and fungi,” for “antimicrobials.”
as §6, §7, §8, §4, §5

[12] = system: Candida glabrata ATCC 90030; assay: Broth microdilution MIC/MFC; format: cell-based; details: Nakaseomyces glabratus, ATCC90030, read-out: MIC
Text: as §1
as §2, with “antimicrobials. All the used microbial cultures were first subcultured on nu-trient agar or Sabouraud agar at 35°C for 18-24 h or 30°C for 24-48 h for bacteria and fungi,” for “antimicrobials.”
as §6, §7, §8, §4, §5

[13] = system: Bacillus subtilis ATCC 6633; assay: Broth microdilution MIC/MBC; format: cell-based; details: for MIC: ATCC6633, read-out: MIC
Text: Detailed procedures are presented in the Supplementary Materials. […]
as §1
as §2, with “antimicrobials. All the used microbial cultures were first subcultured on nu-trient agar or Sabouraud agar at 35°C for 18-24 h or 30°C for 24-48 h for bacteria and fungi,” for “antimicrobials.”
as §6, §7, §8, §4, §5

[14] = system: Bordetella bronchiseptica ATCC 4617; assay: Broth microdilution MIC/MBC; format: cell-based; details: ATCC4617
Text: as §1
as §2, with “antimicrobials. All the used microbial cultures were first subcultured on nu-trient agar or Sabouraud agar at 35°C for 18-24 h or 30°C for 24-48 h for bacteria and fungi,” for “antimicrobials.”
as §6, §7, §8, §4, §5

[15] = system: Bacillus cereus ATCC 10876; assay: Broth microdilution MIC/MBC; format: cell-based; details: for MBC: ATCC10876; for MIC: ATCC10876, read-out: MIC
Text: as §1
as §2, with “antimicrobials. All the used microbial cultures were first subcultured on nu-trient agar or Sabouraud agar at 35°C for 18-24 h or 30°C for 24-48 h for bacteria and fungi,” for “antimicrobials.”
as §6, §7, §8, §4, §5

[16] = system: Klebsiella pneumoniae ATCC 13883; assay: Broth microdilution MIC/MBC; format: cell-based; details: ATCC13883
Text: as §1
as §2, with “antimicrobials. All the used microbial cultures were first subcultured on nu-trient agar or Sabouraud agar at 35°C for 18-24 h or 30°C for 24-48 h for bacteria and fungi,” for “antimicrobials.”
as §6, §7, §8, §4, §5

[17] = system: Escherichia coli ATCC 25922; assay: Broth microdilution MIC/MBC; format: cell-based; details: ATCC25922
Text: as §1
as §2, with “antimicrobials. All the used microbial cultures were first subcultured on nu-trient agar or Sabouraud agar at 35°C for 18-24 h or 30°C for 24-48 h for bacteria and fungi,” for “antimicrobials.”
as §6, §7, §8, §4, §5

[18] = system: Enterococcus faecalis ATCC 29212; assay: Broth microdilution MIC/MBC; format: cell-based; details: ATCC29212, read-out: MIC
Text: as §1
as §2, with “antimicrobials. All the used microbial cultures were first subcultured on nu-trient agar or Sabouraud agar at 35°C for 18-24 h or 30°C for 24-48 h for bacteria and fungi,” for “antimicrobials.”
as §6, §7, §8, §4, §5

SMILES | MIC [1] [µg/mL] | MIC [2] [µg/mL] | MBC/MIC [3] | MBC [3] [µg/mL] | MIC [3] [µg/mL] | MIC [4] [µg/mL] | MBC/MIC [5] | MBC [5] [µg/mL] | MIC [5] [µg/mL] | MIC [6] [µg/mL] | MBC/MIC [7] | MBC [7] [µg/mL] | MIC [7] [µg/mL] | MFC/MIC [8] | MFC [8] [µg/mL] | MIC [8] [µg/mL] | MIC [9] [µg/mL] | MIC ([10]; Lodderomyces parapsilosis) [µg/mL] | MFC/MIC [11] | MFC [11] [µg/mL] | also measured
CCCOc1ccc(/C=N/NC(=O)c2ccc(O)cc2O)cc1 [Compound 6, 2,4-dihydroxy-N-[(4-propoxyphenyl)methylidene]benzohydrazide] | > 1000 | 1000 (≈ 3.18 mM) | > 1 | > 1000 | 1000 (≈ 3.18 mM) | > 1000 | > 1 | > 1000 | 1000 (≈ 3.18 mM) | > 1000 | > 1 | > 1000 | 1000 (≈ 3.18 mM) | > 1 | > 1000 | 1000 (≈ 3.18 mM) | > 1000 | 1000 (≈ 3.18 mM) | > 2 | > 1000 | MBC [2]: > 1000 µg/mL; MBC/MIC [2]: > 1; MFC/MIC [10]: > 1; MFC ([10]; Lodderomyces parapsilosis, ATCC22019, read-out: MFC): > 1000 µg/mL; MIC [11]: 500 µg/mL (≈ 1.59 mM); MIC [12]: > 1000 µg/mL; melting point: 251 °C; MBC/MIC [13]: > 1; MBC ([13]; ATCC6633): > 1000 µg/mL; MIC [13]: 1000 µg/mL (≈ 3.18 mM); MIC [14]: > 1000 µg/mL; MBC/MIC [15]: > 1; MBC [15]: > 1000 µg/mL; MIC [15]: 1000 µg/mL (≈ 3.18 mM); MIC [16]: > 1000 µg/mL; MIC [17]: > 1000 µg/mL; MIC [18]: > 1000 µg/mL
CCCCOc1ccc(/C=N/NC(=O)c2ccc(O)cc2O)cc1 [Compound 7, N-[(4-butoxyphenyl)methylidene]-2,4-dihydroxybenzohydrazide] | > 1000 | > 1000 | > 1 | > 1000 | 1000 (≈ 3.05 mM) | > 1000 | 2 | 1000 (≈ 3.05 mM) | 500 (≈ 1.52 mM) | > 1000 | > 1 | > 1000 | 1000 (≈ 3.05 mM) | > 1 | > 1000 | 1000 (≈ 3.05 mM) | > 1000 | > 1000 | > 2 | > 1000 | MIC [11]: 500 µg/mL (≈ 1.52 mM); MIC [12]: > 1000 µg/mL; melting point: 246 °C; MIC [13]: > 1000 µg/mL; MIC [14]: > 1000 µg/mL; MBC/MIC [15]: > 1; MBC [15]: > 1000 µg/mL; MIC [15]: 1000 µg/mL (≈ 3.05 mM); MIC [16]: > 1000 µg/mL; MIC [17]: > 1000 µg/mL; MIC [18]: > 1000 µg/mL
